Test results published in PMC5936891, “A focused library synthesis and cytotoxicity of quinones derived from the natural product bolinaquinone” (Royal Society Open Science, 2018).
Entries after “also recorded” stand apart in the source; their conditions may differ. Read-outs that look alike come from different tables or passages of the source.

What was measured:
HT29 (colon carcinoma) = assay: MTT in vitro growth inhibition assay, HT29; assay type: cell-based; conditions: Homo sapiens; for inhibition at 25 µM: HT-29, 25 µM of drug, 72 h, read-out: Percentage of Cell Growth Inhibition HT29; for GI50: HT-29, 72 h drug exposure
U87 (glioblastoma) = assay: MTT in vitro growth inhibition assay, U87; assay type: cell-based; conditions: for inhibition at 25 µM: 25 µM of drug, 72 h, read-out: Percentage of Cell Growth Inhibition U87; for GI50: 72 h drug exposure
MCF-7 (breast carcinoma) = assay: MTT in vitro growth inhibition assay, MCF-7; assay type: cell-based; conditions: Homo sapiens; for inhibition at 25 µM: MCF7, 25 µM of drug, 72 h, read-out: Percentage of Cell Growth Inhibition MCF-7; for GI50: MCF7, 72 h drug exposure
[1] = test system: A2780 (ovarian carcinoma); assay: MTT in vitro growth inhibition assay, A2780; assay type: cell-based; conditions: Homo sapiens; for inhibition at 25 µM: 25 µM of drug, 72 h, read-out: Percentage of Cell Growth Inhibition A2780; for GI50: 72 h drug exposure
H460 (lung carcinoma) = assay: MTT in vitro growth inhibition assay, H460; assay type: cell-based; conditions: Homo sapiens; for inhibition at 25 µM: NCI-H460, 25 µM of drug, 72 h, read-out: Percentage of Cell Growth Inhibition H460; for GI50: NCI-H460, 72 h drug exposure
A431 (skin carcinoma) = assay: MTT in vitro growth inhibition assay, A431; assay type: cell-based; conditions: Homo sapiens; for inhibition at 25 µM: A-431, 25 µM of drug, 72 h, read-out: Percentage of Cell Growth Inhibition A431; for GI50: A-431, 72 h, 72 h drug exposure
[2] = test system: Du145 (prostate carcinoma); assay: MTT in vitro growth inhibition assay, Du145; assay type: cell-based; conditions: Homo sapiens; for inhibition at 25 µM: DU-145, 25 µM of drug, 72 h, read-out: Percentage of Cell Growth Inhibition Du145; for GI50: DU-145, 72 h, 72 h drug exposure
BE2-C (neuroblastoma) = assay: MTT in vitro growth inhibition assay, BE2-C; assay type: cell-based; conditions: Homo sapiens, BE(2)-C, 72 h; for inhibition at 25 µM: 25 µM of drug, read-out: Percentage of Cell Growth Inhibition BE2-C; for GI50: 72 h drug exposure
SJ-G2 (glioblastoma) = assay: MTT in vitro growth inhibition assay, SJ-G2; assay type: cell-based; conditions: for inhibition at 25 µM: 25 µM of drug, 72 h, read-out: Percentage of Cell Growth Inhibition SJ-G2; for GI50: 72 h drug exposure
[3] = test system: MIA (pancreatic carcinoma); assay: MTT in vitro growth inhibition assay, MIA; assay type: cell-based; conditions: for inhibition at 25 µM: 25 µM of drug, 72 h, read-out: Percentage of Cell Growth Inhibition MIA; for GI50: 72 h drug exposure
[4] = test system: SMA (spontaneous murine astrocytoma); assay: MTT in vitro growth inhibition assay, SMA; assay type: cell-based; conditions: Mus musculus; for inhibition at 25 µM: 25 µM of drug, 72 h, read-out: Percentage of Cell Growth Inhibition SMA; for GI50: 72 h drug exposure
[5] = test system: MCF10A (normal breast cell line); assay: MTT in vitro growth inhibition assay, MCF10A; assay type: cell-based; conditions: Homo sapiens, MCF-10A; for inhibition at 25 µM: 25 µM of drug, 72 h, read-out: Percentage of Cell Growth Inhibition MCF10A; for GI50: normal breast cell line, 72 h drug exposure
[6] = test system: panel of 11 cancer cell lines and one normal cell line; assay: Cytotoxicity across the whole cell line panel (MTT); assay type: cell-based; conditions: for activity at the initial screening concentration (to proceed to GI50 determination): 25 µM single dose
From the text: With the desired bolinaquinone analogues 12–43 in hand, we examined their cytotoxicity against a panel of 11 tumour cell lines: HT29 (colon carcinoma), U87 and SJ-G2 (glioblastoma), MCF-7 (breast carcinoma), A2780 (ovarian carcinoma), H460 (lung carcinoma), A431 (skin carcinoma), Du145 (prostate carcinoma), BE2-C (neuroblastoma), MIA (pancreatic carcinoma), SMA (spontaneous murine astrocytoma) and a normal breast cell line (MCF10A). The inclusion of the MCF-10A cell line allowed a determination of a crude measure of relative toxicity while noting that the ultimate arbiter of toxicity requires in vivo evaluation. All analogues were initially screened at a 25 µM drug concentration.
Stock solutions were prepared as follows and stored at −20°C: drugs were stored as 40 mM solutions in DMSO. All cell lines were cultured in a humidified atmosphere 5% CO2 at 37°C. The cancer cell lines were maintained in Dulbecco's modified Eagle's medium (DMEM) (Trace Biosciences, Australia) supplemented with 10% fetal bovine serum, 10 mM sodium bicarbonate, penicillin (100 IU ml^−1), streptomycin (100 µg ml^−1) and glutamine (4 mM). The non-cancer MCF10A cell line was cultured in DMEM:F12 (1 : 1) cell culture media, 5% heat-inactivated horse serum, supplemented with penicillin (50 IU ml^−1), streptomycin (50 µg ml^−1), 20 mM Hepes, L-glutamine (2 mM), epidermal growth factor (20 ng ml^−1), hydrocortisone (500 ng ml^−1), cholera toxin (100 ng ml^−1) and insulin (10 ug ml^−1).
Cells in logarithmic growth were transferred to 96-well plates. Cytotoxicity was determined by plating cells in duplicate in 100 µl medium at a density of 2500–4000 cells per well. On day 0 (24 h after plating), when the cells were in logarithmic growth, 100 μl of medium with or without the test agent was added to each well. After 72 h, drug exposure growth inhibitory effects were evaluated using the MTT (3-[4,5-dimethylthiazol-2-yl]-2,5-diphenyl-tetrazolium bromide) assay and the absorbance read at 540 nm. Percentage growth inhibition was determined at a fixed drug concentration of 25 µM. A value of 100% is indicative of complete cell growth inhibition. Those analogues showing appreciable percentage growth inhibition underwent further dose–response analysis allowing for the calculation of a GI50 value. This value is the drug concentration at which cell growth is 50% inhibited based on the difference between the optical density values on day 0 and those at the end of drug exposure.

[7] = average over the cell line panel, read-out: average GI50

| Compound | inhibition at 25 µM (HT29 (colon carcinoma)) [%] | inhibition at 25 µM (U87 (glioblastoma)) [%] | inhibition at 25 µM (MCF-7 (breast carcinoma)) [%] | inhibition at 25 µM [1] [%] | inhibition at 25 µM (H460 (lung carcinoma)) [%] | inhibition at 25 µM (A431 (skin carcinoma)) [%] | inhibition at 25 µM [2] [%] | inhibition at 25 µM (BE2-C (neuroblastoma)) [%] | inhibition at 25 µM (SJ-G2 (glioblastoma)) [%] | inhibition at 25 µM [3] [%] | inhibition at 25 µM [4] [%] | inhibition at 25 µM [5] [%] | activity at the initial screening concentration (to proceed to GI50 determination) [6] | melting point [°C] | GI50 (HT29 (colon carcinoma)) [µM] | GI50 (U87 (glioblastoma)) [µM] | GI50 (MCF-7 (breast carcinoma)) [µM] | GI50 [1] [µM] | GI50 (H460 (lung carcinoma)) [µM] | GI50 (A431 (skin carcinoma)) [µM] | other results |
| --- | --- | --- | --- | --- | --- | --- | --- | --- | --- | --- | --- | --- | --- | --- | --- | --- | --- | --- | --- | --- | --- |
| COC1=CC(=O)C(OC)=C(c2ccc3ccccc3c2)C1=O [compound 24, 2,5-Dimethoxy-3-(naphthalene-3-yl)cycloheza-2,5-diene-1,4-dione] | < 10 | 15 ± 4 | 22 ± 6 | 54 ± 15 | 12 ± 4 | < 10 | 11 | 65 ± 20 | 20 ± 4 | < 10 | 31 ± 10 | 13 ± 6 | not sufficiently active; also recorded: inactive | 137 to 139 | – | – | – | – | – | – | – |
| COC1=CC(=O)C(OC)=C(c2cc3ccccc3s2)C1=O [compound 26, 3-(Benzo[b]thiophen-2-yl)-2,5-dimethoxycyclohexa-2,5-diene-1,4-dione] | 70 ± 2 | 42 ± 5 | 79 ± 4 | 61 ± 1 | 49 ± 8 | 75 ± 1 | 66 ± 5 | 72 ± 3 | 42 ± 3 | 59 ± 2 | 60 ± 3 | 65 ± 4 | not sufficiently active; also recorded: did not proceed to GI50 determination | 205 to 207 | – | – | – | – | – | – | – |
| COC1=CC(=O)C(OC)=C(c2ccc(-c3ccccc3)cc2)C1=O [compound 27, 3-Biphenyl-4-yl-2,5-dimethoxycyclohexa-2,5-diene-1,4-dione] | 76 ± 2 | 54 ± 5 | 65 ± 2 | 70 ± 3 | 48 ± 3 | 78 ± 1 | 57 ± 7 | 98 ± 4 | 38 ± 3 | 70 ± 1 | 61 ± 6 | 63 ± 1 | – | 178 to 180 | 4.3 ± 0.1 | 19 ± 2.3 | 4 ± 0.1 | 4.3 ± 0.1 | 19 ± 2.5 | 5.7 ± 0.45 | GI50 [2]: 4.1 ± 0.1 µM; GI50 (BE2-C (neuroblastoma)): 4.1 ± 0.1 µM; GI50 (SJ-G2 (glioblastoma)): 31 ± 0.9 µM; GI50 [3]: 4.5 ± 0.13 µM; GI50 [4]: 19 ± 4.2 µM; GI50 [5]: 3.9 ± 0.1 µM; GI50 [6, 7]: 10.2 µM; GI50 ([6]; span over the cell line panel, read-out: GI50 values across the cell lines examined (range)): 3.9 to 19 µM |
| COC1=CC(=O)C(OC)=C(c2cccc(-c3ccccc3)c2)C1=O [compound 28, 3-Biphenyl-3-yl-2,5-dimethoxycyclohexa-2,5-diene-1,4-dione] | 16 ± 2 | 12 ± 9 | 27 ± 1 | 52 ± 17 | 12 ± 5 | < 10 | 12 ± 1 | 59 ± 23 | 18 ± 3 | < 10 | 36 ± 8 | < 10 | not sufficiently active; also recorded: did not proceed to GI50 determination | 172 to 174 | – | – | – | – | – | – | cytotoxicity spectrum across the panel [6]: broad-spectrum active |
| CCCNC1=CC(=O)C(NCCC)=C(c2ccccc2-c2ccccc2)C1=O [compound 41, 3-(Biaryl-2-yl)-2,5-bis-(propylamino)cyclohexa-2,5-diene-1,4-dione] | 75 ± 2 | 82 ± 3 | 70 ± 3 | 68 ± 2 | 62 ± 1 | 90 ± 1 | 71 ± 2 | 74 ± 7 | 60 ± 2 | 76 ± 1 | 68 ± 6 | 83 ± 2 | sufficient activity | 177 to 179 | 1.9 | 5.1 ± 1 | 2 ± 0.1 | 2 ± 0.1 | 2.3 ± 0.1 | 2 ± 0.1 | GI50 [2]: 1.9 ± 0.1 µM; GI50 (BE2-C (neuroblastoma)): 1.9 µM; GI50 (SJ-G2 (glioblastoma)): 3.5 ± 1 µM; GI50 [3]: 1.9 µM; GI50 [4]: 3.3 ± 1 µM; GI50 [5]: 1.7 ± 0.2 µM; potency enhancement over parent analogue ([6]; 41 vs parent 29, 43 vs parent 33, on introduction of amine substituents): greater than or equal to 20 fold; GI50 [6, 7]: 2.5 µM |
